# Results reported in article PMC5355235, “FLT3 activating mutations display differential sensitivity to multiple tyrosine kinase inhibitors” (Oncotarget, 2017).
# Positions count from the first letter of the chain named.
# Assays:
# Assay type in all cases: cell-based
# [1] = target: T1, FLT3 D835Y (Homo sapiens, UniProt P36888, D835Y); experiment: FLT3 autophosphorylation, immunoprecipitation/Western blot, D835Y; conditions: FLT3 D835Y cells, highest concentrations tested, 1 h
# T1 construct: expressed in transfected cells; host or cells: BaF3
# T1 sequence (P36888 27-993 D835Y): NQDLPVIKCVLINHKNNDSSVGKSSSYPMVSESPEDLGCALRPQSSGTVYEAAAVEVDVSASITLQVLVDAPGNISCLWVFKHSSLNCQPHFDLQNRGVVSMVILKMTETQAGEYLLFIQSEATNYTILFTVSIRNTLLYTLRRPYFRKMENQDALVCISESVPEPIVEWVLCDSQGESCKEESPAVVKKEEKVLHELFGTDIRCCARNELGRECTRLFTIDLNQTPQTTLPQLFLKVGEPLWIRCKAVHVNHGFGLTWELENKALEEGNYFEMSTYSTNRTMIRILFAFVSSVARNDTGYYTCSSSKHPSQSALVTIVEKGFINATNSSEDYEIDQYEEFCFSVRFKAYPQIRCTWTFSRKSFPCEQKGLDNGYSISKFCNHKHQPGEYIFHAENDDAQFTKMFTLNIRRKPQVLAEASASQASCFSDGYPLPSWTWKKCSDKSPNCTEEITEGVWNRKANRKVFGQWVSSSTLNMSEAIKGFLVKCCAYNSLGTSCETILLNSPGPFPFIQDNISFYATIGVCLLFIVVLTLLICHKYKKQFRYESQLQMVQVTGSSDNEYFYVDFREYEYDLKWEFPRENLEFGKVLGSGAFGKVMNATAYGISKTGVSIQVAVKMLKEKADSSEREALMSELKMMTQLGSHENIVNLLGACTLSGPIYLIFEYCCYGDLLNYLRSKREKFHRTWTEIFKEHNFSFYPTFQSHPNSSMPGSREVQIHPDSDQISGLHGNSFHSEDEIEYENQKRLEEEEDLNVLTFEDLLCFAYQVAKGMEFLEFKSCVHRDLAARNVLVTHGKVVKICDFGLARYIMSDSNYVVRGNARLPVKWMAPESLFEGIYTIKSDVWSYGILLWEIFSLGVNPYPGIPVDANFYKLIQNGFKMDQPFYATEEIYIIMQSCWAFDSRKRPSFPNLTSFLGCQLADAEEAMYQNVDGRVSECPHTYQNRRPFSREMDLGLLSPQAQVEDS
# Procedure: Activated FLT3 expression was measured by performing immunoprecipitation, SDS-PAGE and Western blotting as previously described. Specifically, 10^7 cells were washed in medium and treated with inhibitor for 1 h followed by stimulation with 25 ng/ml of FLT3 ligand for 15 minutes where indicated. Cells were washed twice with ice-cold PBS and lysed in 300 µl of NP-40 lysis buffer (150 mM NaCl, 20 mM TrisHCl (pH7.4), 10% glycerol, 1% NP-40, 10 mM EDTA, 100 mM NaF) with 2 mM Na3VO4 and protease inhibitors (Complete Tablets, Roche, Mannheim, Germany) at 4°C for 30 m. Cell lysate was harvested by centrifugation at 13,000 × g for 30 m at 4°C. FLT3 S-18 antibody was incubated with 500 µg lysate overnight at 4°C followed by immunoprecipitation with protein A-agarose beads for 2 h. Beads were washed once in Tris buffered saline with 1% Tween-20 (TBST) and twice in TBS. Samples were boiled in sodium dodecyl sulfate (SDS) sample buffer prior to separating in a 8% SDS-polyacrylamide gel (SDS-PAGE). Proteins were transferred to a polyvinyl diflouride (PVDF) membrane (Millipore, Bedford, MA, USA) and detected by 4G10 phosphotyrosine antibody and anti-FLT3 S-18 antibody. FLT3 was visualized using the Odyssey Infra Red Imaging System from Li-Cor (Lincoln, NE, USA) using AlexaFluor 680 goat anti-mouse and AlexaFluor 800 goat anti-rabbit antibodies. […]
# [2] = target: T2, wild-type FLT3 (Homo sapiens, UniProt P36888); experiment: Wild-type FLT3 autophosphorylation in FL-stimulated BaF3/WT-FLT3 cells; conditions: TKI 1 h, then 25 ng/ml human FLT3 ligand 15 min
# T2 construct: expressed in transfected cells; host or cells: BaF3
# T2 sequence (P36888 27-993): T1 sequence (P36888 27-993 D835Y) with Y809D
# Procedure: Figure 3 Inhibition of wild-type FLT3 signaling pathways by FLT3 TKI BaF3/WT-FLT3 cells were treated with FLT3 TKI at the indicated concentrations for 1 h at 37°C then stimulated with 25ng/ml of human FLT3 ligand for 15 minutes, followed by immunoprecipitation for FLT3, SDS-PAGE and WB for FLT3 and phospho-FLT3 (PFLT3).
# Activated FLT3 expression was measured by performing immunoprecipitation, SDS-PAGE and Western blotting as previously described. […] Specifically, 10^7 cells were washed in medium and treated with inhibitor for 1 h followed by stimulation with 25 ng/ml of FLT3 ligand for 15 minutes where indicated. Cells were washed twice with ice-cold PBS and lysed in 300 µl of NP-40 lysis buffer (150 mM NaCl, 20 mM TrisHCl (pH7.4), 10% glycerol, 1% NP-40, 10 mM EDTA, 100 mM NaF) with 2 mM Na3VO4 and protease inhibitors (Complete Tablets, Roche, Mannheim, Germany) at 4°C for 30 m. Cell lysate was harvested by centrifugation at 13,000 × g for 30 m at 4°C. FLT3 S-18 antibody was incubated with 500 µg lysate overnight at 4°C followed by immunoprecipitation with protein A-agarose beads for 2 h. Beads were washed once in Tris buffered saline with 1% Tween-20 (TBST) and twice in TBS. […] Proteins were transferred to a polyvinyl diflouride (PVDF) membrane (Millipore, Bedford, MA, USA) and detected by 4G10 phosphotyrosine antibody and anti-FLT3 S-18 antibody. […]
# [3] = test system: FLT3/ITD; experiment: FLT3/ITD autophosphorylation and signaling pathways, Western blot; conditions: FLT3/ITD cells, 1 h, concentration-dependent
# Procedure: Activated FLT3 expression was measured by performing immunoprecipitation, SDS-PAGE and Western blotting as previously described. Specifically, 10^7 cells were washed in medium and treated with inhibitor for 1 h followed by stimulation with 25 ng/ml of FLT3 ligand for 15 minutes where indicated. Cells were washed twice with ice-cold PBS and lysed in 300 µl of NP-40 lysis buffer (150 mM NaCl, 20 mM TrisHCl (pH7.4), 10% glycerol, 1% NP-40, 10 mM EDTA, 100 mM NaF) with 2 mM Na3VO4 and protease inhibitors (Complete Tablets, Roche, Mannheim, Germany) at 4°C for 30 m. Cell lysate was harvested by centrifugation at 13,000 × g for 30 m at 4°C. FLT3 S-18 antibody was incubated with 500 µg lysate overnight at 4°C followed by immunoprecipitation with protein A-agarose beads for 2 h. Beads were washed once in Tris buffered saline with 1% Tween-20 (TBST) and twice in TBS. Samples were boiled in sodium dodecyl sulfate (SDS) sample buffer prior to separating in a 8% SDS-polyacrylamide gel (SDS-PAGE). Proteins were transferred to a polyvinyl diflouride (PVDF) membrane (Millipore, Bedford, MA, USA) and detected by 4G10 phosphotyrosine antibody and anti-FLT3 S-18 antibody. FLT3 was visualized using the Odyssey Infra Red Imaging System from Li-Cor (Lincoln, NE, USA) using AlexaFluor 680 goat anti-mouse and AlexaFluor 800 goat anti-rabbit antibodies. Phosphorylation of the FLT3 downstream signaling mediators, STAT5, AKT and MAP kinase was investigated by loading 50 µg of whole cell lysate and probing with the indicated antibodies. The membrane was washed and incubated in goat anti-rabbit secondary antibody conjugated to horseradish peroxidase followed by enhanced chemiluminescence (ECL). The membrane was subsequently stripped in 200 mM glycine buffer, pH 2.5 with 0.1% Tween-20 and reprobed for STAT5, AKT and MAP kinase expression using the respective antibodies.
smiles,measurement,setting,value
Cc1cc2ncc(-c3ccccc3)nc2cc1C [AG1295],Inhibition of FLT3 autophosphorylation,[1],markedly reduced or absent inhibition
same,IC50,[2],500 nM
same,"Inhibition of FLT3 autophosphorylation and phosphorylation of STAT5, AKT and Map kinase",[3],inhibited FLT3 autophosphorylation
